Data: patent US4666936A, “Amide derivatives of 2-(p-aminobenzyl)-butyric acid and esters thereof having hypolipidemizing activity” (Medosan Industrie Biochimiche Riunite S.p.A., priority 1984, dated 1987)
Entries after “also recorded” stand apart in the source; their conditions may differ.

tested on: not listed separately; experiment: Acute toxicity (DL50) in mouse, oral route; conditions: in vivo, oral (os), 15 days observation
Protocol: DL50 was evaluated after administration of the compounds (2), (3), (4), (5) and (6) alone in male albine Swiss mice weighing 27±3 g, using the oral route. The animals were held under observation by checking the mortality and pain signs, if any, for 15 days.
The DL50 values (mg/kg) are referred in table III.

| Compound | LD50 |
| --- | --- |
| CCC(Cc1ccc(N2C(=O)c3ccccc3C2=O)cc1)C(=O)O (stereo not shown) [Compound (2), 2-(p-phthalimidobenzyl)-butyric acid] | > 2000 mg/kg |
| CCOC(=O)C(CC)Cc1ccc(N2C(=O)c3ccccc3C2=O)cc1 (stereo not shown) [Compound (3), 2-(p-phthalimidobenzyl)-butyric acid ethyl ester] | > 1700 mg/kg |
| CCOC(=O)C(CC)Cc1ccc(NC(=O)c2ccc(Cl)cc2)cc1 (stereo not shown) [Compound (4), 2-[4-(p-chlorobenzamido)-benzyl]-butyric acid ethyl ester] | > 2000 mg/kg |
| CCOC(=O)C(CC)Cc1ccc(NC(=O)Cc2ccc(-n3cccc3)cc2)cc1 (stereo not shown) [Compound (5), 2-{4-[4-(1-pyrryl)-phenylacetamido]-benzyl}-butyric acid ethyl ester] | > 2000 mg/kg |
| CCC(Cc1ccc(NC(=O)c2ccccc2C(=O)O)cc1)C(=O)O (stereo not shown) [Compound (6), 2-(p-phthalylaminobenzyl)-butyric acid] | > 2000 mg/kg |

tested on: not given; experiment: not given; conditions: mouse, os; value as reported in literature: G. Metz et al, Arzneimittel Forschung, 27: 1173; 1977; cited from earlier work

| Compound | DL50 |
| --- | --- |
| CCOC(=O)C(C)(C)Oc1ccc(Cl)cc1 [Clofibrate, reference compound] | 1280 mg/kg |

tested on: hematic levels of triglycerides and total cholesterol; experiment: Hypolipidemizing activity in rat made hyperlipidemic by Triton WR-1339; type: in vivo, rat (male Wistar); conditions: 500 mg/kg per os, serum after 18 hours fasting
Protocol: (§1) The preparations administered "in vivo" by oral route, comprise a 0.5% suspension of carboxymethylcellulose in a neutral pH normal physiological saline for the compounds (3), (4) and (5), while for the compounds (2) and (6) the preparation comprises a solution in NaOH (0.1N) at pH 7-7.5. The hypolipidemizing activity of the substances under test was evaluated as the ability to decrease the hematic levels of triglycerides and total cholesterol in animals made hyperlipidemic by administration of Triton (antihyperlipidemic agents, J. N. Moss, Screening Methods in Pharmacology,Ed. Robert A. Turner and P. Hebborn, volume II, Academic Press, pages 121-143). The test was carried out on two animal species: rat and mouse. Male Wistar rats and Swiss mice were used, held at a normal diet, the former weighing 200-260 g, the latter weighing about 26-30 g. The compounds (2), (3), (4), (5) and (6) and the Bezafibrate and Clofibrate of control were administered per os at a dose of 500 mg/kg, simultaneously with a 10% solution in normal saline of Triton WR-1339 endoperitoneally at a rate of 2 ml/kg body weight. After treatment, the animals were divided into lots of eight, and held fasting for 18 hours and then sacrificed. The hematic levels of triglycerides total cholesterol are measured on the serum by enzymatic methods (Test-Combination Triglycerides, Boehring Mannheim GmbH) and colorimetric methods (Test-Combination Cholesterol, Boehring Mannheim GmbH). The results on the hypolipidemizing activity of the compounds under test in rat and mouse are referred in tables I and II.

| Compound | Total cholesterol, % mg | Triglycerides, % mg |
| --- | --- | --- |
| CC(C)(Oc1ccc(CCNC(=O)c2ccc(Cl)cc2)cc1)C(=O)O [Bezafibrate, reference compound] | 210 % mg | 415 % mg |
| CCOC(=O)C(C)(C)Oc1ccc(Cl)cc1 [Clofibrate, reference compound] | 218 % mg | 420 % mg |
| CCC(Cc1ccc(N2C(=O)c3ccccc3C2=O)cc1)C(=O)O (stereo not shown) [Compound (2), 2-(p-phthalimidobenzyl)-butyric acid] | 176 % mg | 360 % mg |
| CCOC(=O)C(CC)Cc1ccc(N2C(=O)c3ccccc3C2=O)cc1 (stereo not shown) [Compound (3), 2-(p-phthalimidobenzyl)-butyric acid ethyl ester] | 189 % mg | 390 % mg |
| CCOC(=O)C(CC)Cc1ccc(NC(=O)c2ccc(Cl)cc2)cc1 (stereo not shown) [Compound (4), 2-[4-(p-chlorobenzamido)-benzyl]-butyric acid ethyl ester] | 200 % mg | 400 % mg |
| CCOC(=O)C(CC)Cc1ccc(NC(=O)Cc2ccc(-n3cccc3)cc2)cc1 (stereo not shown) [Compound (5), 2-{4-[4-(1-pyrryl)-phenylacetamido]-benzyl}-butyric acid ethyl ester] | 205 % mg | 410 % mg |
| CCC(Cc1ccc(NC(=O)c2ccccc2C(=O)O)cc1)C(=O)O (stereo not shown) [Compound (6), 2-(p-phthalylaminobenzyl)-butyric acid] | 180 % mg | 380 % mg |

same assay, conditions: 500 mg/kg per os, vs carrier

| Compound | Total cholesterol, % variation | Triglycerides, % variation |
| --- | --- | --- |
| CC(C)(Oc1ccc(CCNC(=O)c2ccc(Cl)cc2)cc1)C(=O)O [Bezafibrate, reference compound] | -22% | -20% |
| CCOC(=O)C(C)(C)Oc1ccc(Cl)cc1 [Clofibrate, reference compound] | -19% | -19% |
| CCC(Cc1ccc(N2C(=O)c3ccccc3C2=O)cc1)C(=O)O (stereo not shown) [Compound (2), 2-(p-phthalimidobenzyl)-butyric acid] | -35% | -31% |
| CCOC(=O)C(CC)Cc1ccc(N2C(=O)c3ccccc3C2=O)cc1 (stereo not shown) [Compound (3), 2-(p-phthalimidobenzyl)-butyric acid ethyl ester] | -30% | -25% |
| CCOC(=O)C(CC)Cc1ccc(NC(=O)c2ccc(Cl)cc2)cc1 (stereo not shown) [Compound (4), 2-[4-(p-chlorobenzamido)-benzyl]-butyric acid ethyl ester] | -26% | -23% |
| CCOC(=O)C(CC)Cc1ccc(NC(=O)Cc2ccc(-n3cccc3)cc2)cc1 (stereo not shown) [Compound (5), 2-{4-[4-(1-pyrryl)-phenylacetamido]-benzyl}-butyric acid ethyl ester] | -24% | -21% |
| CCC(Cc1ccc(NC(=O)c2ccccc2C(=O)O)cc1)C(=O)O (stereo not shown) [Compound (6), 2-(p-phthalylaminobenzyl)-butyric acid] | -32% | -28% |

tested on: cholesterol and triglycerides; experiment: not given; conditions: literature, prior art; cited from earlier work

| Compound | hypolipidemizing activity (in words) |
| --- | --- |
| Cc1ccc(C)n1-c1ccc(CC(=O)Nc2nccs2)cc1 | hypolipidemizing activity lower than that of Bezafibrate |
| CC(C)(Oc1ccc(CCNC(=O)c2ccc(Cl)cc2)cc1)C(=O)O [Bezafibrate, reference compound] | ability to decrease the hematic levels of cholesterol and triglycerides |
| CCOC(=O)C(C)(C)Oc1ccc(Cl)cc1 [Clofibrate, reference compound] | ability to decrease the hematic levels of cholesterol and triglycerides |
| CC(C)OC(=O)C(C)(C)Oc1ccc(C(=O)c2ccc(Cl)cc2)cc1 [Procetofene] | hypolipidemizing activity lower than that of Bezafibrate |
| CC(=O)c1ccccc1N1C(=O)c2ccccc2C1=O [o-(N-phthalimido)acetophenone] | more active than Clofibrate in reducing the serum cholesterol percentage and the triglyceride level |
| O=C1NC(=O)c2ccccc21 [phthalimide] | hypocholesterolemizing activity |

tested on: hematic levels of cholesterol and triglycerides; experiment: Pharmacological tests of hypolipidemizing activity, overall statements; type: in vivo, rat and mouse; conditions: compared with Bezafibrate and Clofibrate
Protocol: as §1

| Compound | hypocholesterolemizing and hypolipidemizing activity (in words) |
| --- | --- |
| CCC(Cc1ccc(N2C(=O)c3ccccc3C2=O)cc1)C(=O)O (stereo not shown) [Compound (2), 2-(p-phthalimidobenzyl)-butyric acid] | interesting ability to decrease the hematic levels of cholesterol and triglycerides; also recorded: particularly high hypocholesterolemizing and hypolipidemizing activity |
| CCOC(=O)C(CC)Cc1ccc(N2C(=O)c3ccccc3C2=O)cc1 (stereo not shown) [Compound (3), 2-(p-phthalimidobenzyl)-butyric acid ethyl ester] | interesting ability to decrease the hematic levels of cholesterol and triglycerides; also recorded: particularly high hypocholesterolemizing and hypolipidemizing activity |
| CCOC(=O)C(CC)Cc1ccc(NC(=O)c2ccc(Cl)cc2)cc1 (stereo not shown) [Compound (4), 2-[4-(p-chlorobenzamido)-benzyl]-butyric acid ethyl ester] | interesting ability to decrease the hematic levels of cholesterol and triglycerides; also recorded: particularly high hypocholesterolemizing and hypolipidemizing activity |
| CCOC(=O)C(CC)Cc1ccc(NC(=O)Cc2ccc(-n3cccc3)cc2)cc1 (stereo not shown) [Compound (5), 2-{4-[4-(1-pyrryl)-phenylacetamido]-benzyl}-butyric acid ethyl ester] | interesting ability to decrease the hematic levels of cholesterol and triglycerides; also recorded: particularly high hypocholesterolemizing and hypolipidemizing activity |
| CCC(Cc1ccc(NC(=O)c2ccccc2C(=O)O)cc1)C(=O)O (stereo not shown) [Compound (6), 2-(p-phthalylaminobenzyl)-butyric acid] | interesting ability to decrease the hematic levels of cholesterol and triglycerides; also recorded: particularly high hypocholesterolemizing and hypolipidemizing activity |

tested on: hematic levels of triglycerides and total cholesterol; experiment: Hypolipidemizing activity in mouse made hyperlipidemic by Triton WR-1339; type: in vivo, mouse (Swiss); conditions: 500 mg/kg per os, serum after 18 hours fasting
Protocol: as §1

| Compound | Total cholesterol, % mg | Triglycerides, % mg |
| --- | --- | --- |
| CC(C)(Oc1ccc(CCNC(=O)c2ccc(Cl)cc2)cc1)C(=O)O [Bezafibrate, reference compound] | 139 % mg | 100 % mg |
| CCOC(=O)C(C)(C)Oc1ccc(Cl)cc1 [Clofibrate, reference compound] | 152 % mg | 115 % mg |
| CCC(Cc1ccc(N2C(=O)c3ccccc3C2=O)cc1)C(=O)O (stereo not shown) [Compound (2), 2-(p-phthalimidobenzyl)-butyric acid] | 130 % mg | 60 % mg |
| CCOC(=O)C(CC)Cc1ccc(N2C(=O)c3ccccc3C2=O)cc1 (stereo not shown) [Compound (3), 2-(p-phthalimidobenzyl)-butyric acid ethyl ester] | 140 % mg | 64 % mg |
| CCOC(=O)C(CC)Cc1ccc(NC(=O)c2ccc(Cl)cc2)cc1 (stereo not shown) [Compound (4), 2-[4-(p-chlorobenzamido)-benzyl]-butyric acid ethyl ester] | 129 % mg | 90 % mg |
| CCOC(=O)C(CC)Cc1ccc(NC(=O)Cc2ccc(-n3cccc3)cc2)cc1 (stereo not shown) [Compound (5), 2-{4-[4-(1-pyrryl)-phenylacetamido]-benzyl}-butyric acid ethyl ester] | 130 % mg | 80 % mg |
| CCC(Cc1ccc(NC(=O)c2ccccc2C(=O)O)cc1)C(=O)O (stereo not shown) [Compound (6), 2-(p-phthalylaminobenzyl)-butyric acid] | 130 % mg | 64 % mg |

same assay, conditions: 500 mg/kg per os, vs carrier

| Compound | Total cholesterol, % variation | Triglycerides, % variation |
| --- | --- | --- |
| CC(C)(Oc1ccc(CCNC(=O)c2ccc(Cl)cc2)cc1)C(=O)O [Bezafibrate, reference compound] | -33% | -32% |
| CCOC(=O)C(C)(C)Oc1ccc(Cl)cc1 [Clofibrate, reference compound] | -27% | -22% |
| CCC(Cc1ccc(N2C(=O)c3ccccc3C2=O)cc1)C(=O)O (stereo not shown) [Compound (2), 2-(p-phthalimidobenzyl)-butyric acid] | -38% | -59% |
| CCOC(=O)C(CC)Cc1ccc(N2C(=O)c3ccccc3C2=O)cc1 (stereo not shown) [Compound (3), 2-(p-phthalimidobenzyl)-butyric acid ethyl ester] | -33% | -56% |
| CCOC(=O)C(CC)Cc1ccc(NC(=O)c2ccc(Cl)cc2)cc1 (stereo not shown) [Compound (4), 2-[4-(p-chlorobenzamido)-benzyl]-butyric acid ethyl ester] | -38% | -39% |
| CCOC(=O)C(CC)Cc1ccc(NC(=O)Cc2ccc(-n3cccc3)cc2)cc1 (stereo not shown) [Compound (5), 2-{4-[4-(1-pyrryl)-phenylacetamido]-benzyl}-butyric acid ethyl ester] | -38% | -45% |
| CCC(Cc1ccc(NC(=O)c2ccccc2C(=O)O)cc1)C(=O)O (stereo not shown) [Compound (6), 2-(p-phthalylaminobenzyl)-butyric acid] | -38% | -56% |

tested on: hepatic enzymes involved in the biosynthesis de novo of the triglycerides; experiment: not given; conditions: literature, appears to occur possibly; cited from earlier work

| Compound | inhibiting activity in vivo on hepatic enzymes |
| --- | --- |
| CC(=O)c1ccccc1N1C(=O)c2ccccc2C1=O [o-(N-phthalimido)acetophenone] | inhibiting activity in vivo |

tested on: cholesterol; experiment: not given; conditions: literature, appears to occur possibly; cited from earlier work

| Compound | cholesterol absorption at the intestinal level | excretion of cholesterol with the bile |
| --- | --- | --- |
| CC(=O)c1ccccc1N1C(=O)c2ccccc2C1=O [o-(N-phthalimido)acetophenone] | decrease the cholesterol absorption at the intestinal level | speed up the excretion of cholesterol with the bile |
